Measured values: US9458141B2, “Low molecular weight thyroid stimulating hormone receptor (TSHR) agonists” (The United States of America, as represented by the …, priority 2008, dated 2016)
Like-named read-outs stand apart in the source and are kept apart here.

Target: T1, human TSHR (Homo sapiens, UniProt P16473)
T1 construct: expressed in transfected cells
Assay: Homogeneous Time Resolved Fluorescence (HTRF) cAMP assay, TSHR cell line
Assay type: cell-based
Settings: for Maximum Activity compared to TSH: 100% activity = response of 30 mU/ml TSH, 0% = DMSO control, in %; for AC50: TSHR cell line, 30 minute incubation; for Emax: read-out: Maximum Activity compared to TSH, 100% activity = response of 30 mU/ml TSH, 0% = DMSO control
Source text: Generation of Stable Cell-Lines Expressing TSHR, LHCGR or FSHR.
cDNA for human TSHR was amplified by PCR from hTSHR-pSVL (1) and inserted into the pcDNA3.1(−)/hygromycin vector using restriction sites XhoI and BamHI. cDNA for human LHCGR was amplified by PCR from hLHR-pGS5 (2) and was inserted into the pcDNA3.1(+)/hygromycin vector using restriction sites BamHI and XhoI. The FSHR cDNA in pcDNA3.1 was obtained from the Missouri S&T cDNA Resource Center (www.cDNA.org) and was subcloned into the pcDNA3.1(−)/hygromycin vector. Constructs were confirmed by sequencing (MWG Biotech). HEK-EM 293 cells were transfected with the cDNA of TSHR, LHCGR or FSHR using FuGENE 6 Transfection reagent (Roche Diagnostics) according to the manufacturer's protocol. Two days after transfection cells were passaged and grown in Dulbecco's modified Eagle's Medium (DMEM) supplemented with 10% fetal bovine serum, 100 units/ml penicillin and 10 μg/ml streptomycin (Life Technologies Inc.) and with hygromycin (250 μg/ml) as a selection marker. After 7 to 10 days hygromycin-resistant clones were selected, and after a few days of further growth submitted for a cAMP assay to identify clones that stably express the appropriate receptor. Cell Culture. Cells stably expressing TSHR, LHCGR or FSHR and parental HEK 293 cells were maintained in DMEM medium containing 10% FBS, 100 units/ml Penicillin, 100 μg/ml Streptomycin, at 37° C. in 5% CO2. For the cells lines stably expressing TSHR, LHCGR or FSHR, additional 250 μg/ml Hygromycin was added during the cell culture. The cells were seeded at a density of 3 to 4 million cells in a T175 flask containing 35 ml of media and were allowed to grow for 3 days to reach 80-90% confluence. A flask of HEK 293 cells at this density generally yielded 30 million cells total. Homogeneous Time Resolved Fluorescence (HTRF) cAMP Assay. Compounds were assayed using a HTRF cAMP detection kit (Cisbio, Bedford, Mass.) on both TSHR cell line and parental cell line. Briefly, 750 cells were plated in 2.5 μl/well of complete media (DMEM containing 10% FCS) in 1536 well solid bottom white plates and 20 nl/well compound in DMSO solution or controls was added. Following 30 minute incubation at room temperature, 2.5 μl/well of labeled d2 cAMP and 2.5 μl/well of anti-cAMP antibody (both diluted 1:20 in lysis buffer) were added to each well using a flying reagent dispenser (Aurora Discovery, San Diego). Plates were measured using the Envision plate reader (PerkinElmer, Boston, Mass.) with excitation at 330 nm and emissions of 615 nm and 660 nm. Compound Preparation. […] Data Analysis. […] The EC50 values of compounds were calculated from the concentration-response curves by nonlinear regression analysis using Prism software (GraphPad Software, San Diego, Calif.). Confirmatory cAMP Assay and Test for Selectivity Towards TSHR 50,000 cells/well were plated in complete media (DMEM containing 10% FCS) in 96 well plates. […] Following aspiration of the medium after incubation with compounds, cells were lysed using lysis buffer of the cAMP-Screen Direct™ System (Applied Biosystems, Cat # CSD200). The cAMP content of the cell lysate was determined using the manufacturer's protocol. […] Below is a List of Compounds that were Assayed via the Homogeneous Time Resolved Fluorescence (HTRF) cAMP Assay.

T1 sequence (P16473 21-764): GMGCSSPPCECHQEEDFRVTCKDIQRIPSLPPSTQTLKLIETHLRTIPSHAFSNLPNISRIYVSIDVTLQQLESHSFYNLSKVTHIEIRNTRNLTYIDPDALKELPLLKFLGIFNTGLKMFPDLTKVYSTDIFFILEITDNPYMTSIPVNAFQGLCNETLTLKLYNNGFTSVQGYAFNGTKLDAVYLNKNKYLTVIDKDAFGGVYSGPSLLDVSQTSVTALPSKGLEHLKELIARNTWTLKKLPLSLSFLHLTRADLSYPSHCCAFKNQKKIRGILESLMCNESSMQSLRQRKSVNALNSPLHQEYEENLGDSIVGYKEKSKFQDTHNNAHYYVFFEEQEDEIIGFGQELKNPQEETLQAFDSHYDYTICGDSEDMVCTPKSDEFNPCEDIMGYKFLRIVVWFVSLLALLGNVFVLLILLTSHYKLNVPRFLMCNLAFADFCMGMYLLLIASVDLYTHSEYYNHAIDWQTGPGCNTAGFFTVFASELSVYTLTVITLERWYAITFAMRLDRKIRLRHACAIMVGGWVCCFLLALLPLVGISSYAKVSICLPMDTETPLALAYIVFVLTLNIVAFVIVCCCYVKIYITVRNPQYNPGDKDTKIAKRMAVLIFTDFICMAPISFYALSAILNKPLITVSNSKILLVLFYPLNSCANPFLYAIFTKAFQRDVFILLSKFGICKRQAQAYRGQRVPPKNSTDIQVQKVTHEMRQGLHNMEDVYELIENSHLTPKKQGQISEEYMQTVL

Row | SMILES | Maximum Activity compared to TSH | AC50 (HTRF cAMP, read-out: AC50) | Emax | AC50 (AC50, HTRF cAMP)
1 | COc1ccc(C2Nc3ccccc3C(=O)N2Cc2ccccc2)cc1COc1ccc(NC(C)=O)cc1 (single isomer, unassigned) [Structure 2] | 217.29 |  |  | 11.2 µM
2 | COc1ccc(C2Nc3ccccc3C(=O)N2Cc2ccccc2)cc1COc1ccc(NC(C)=O)cc1 (single isomer, unassigned) [Structure 4] | 171.91 |  |  | 7.08 µM
3 | COc1ccc(C2Nc3ccccc3C(=O)N2Cc2ccccc2)cc1COc1ccc(NC(C)=O)cc1 (single isomer, unassigned) [Structure 7] | 152.47 |  |  | 8.91 µM
4 | COc1ccc(C2Nc3ccccc3C(=O)N2Cc2ccccc2)cc1COc1ccc(NC(C)=O)cc1 (single isomer, unassigned) [Structure 24] | 159.76 |  |  | 7.08 µM
5 | COc1ccc(C2Nc3ccccc3C(=O)N2Cc2ccccc2)cc1COc1ccc(NC(C)=O)cc1 (single isomer, unassigned) [Structure 25] | 207.56 |  |  | 8.91 µM
6 | COc1ccc(C2Nc3ccccc3C(=O)N2Cc2ccccc2)cc1COc1ccc(NC(C)=O)cc1 (single isomer, unassigned) [Structure 26] | 217.05 |  |  | 10 µM
7 | COc1ccc(C2Nc3ccccc3C(=O)N2Cc2ccccc2)cc1COc1ccc(NC(C)=O)cc1 (single isomer, unassigned) [Structure 37] | 104.22 |  |  | 8.91 µM
8 | COc1ccc(C2Nc3ccccc3C(=O)N2Cc2ccccc2)cc1COc1ccc(NC(C)=O)cc1 (single isomer, unassigned) [Structure 49] | 134.24 |  |  | 3.55 µM
9 | COc1ccc(C2Nc3ccccc3C(=O)N2Cc2ccccc2)cc1COc1ccc(NC(C)=O)cc1 (single isomer, unassigned) [Structure 51] | 174.87 |  |  | 15.8 µM
10 | COc1ccc(C2Nc3ccccc3C(=O)N2Cc2ccccc2)cc1COc1ccc(NC(C)=O)cc1 (single isomer, unassigned) [Structure 55] | 194.91 |  |  | 7.94 µM
11 | COc1ccc(C2Nc3ccccc3C(=O)N2Cc2ccccc2)cc1COc1ccc(NC(C)=O)cc1 (single isomer, unassigned) [Structure 56] | 110.90 |  |  | 11.2 µM
12 | COc1ccc(C2Nc3ccccc3C(=O)N2Cc2ccccc2)cc1COc1ccc(NC(C)=O)cc1 (single isomer, unassigned) [Structure 62] | 241.92 |  |  | 7.08 µM
13 | COc1ccc(C2Nc3ccccc3C(=O)N2Cc2ccccc2)cc1COc1ccc(NC(C)=O)cc1 (single isomer, unassigned) [Structure 63] | 166.46 |  |  | 5.01 µM
14 | COc1ccc(C2Nc3ccccc3C(=O)N2Cc2ccco2)cc1COc1ccc(NC(C)=O)cc1 (centres unmarked) [Structure 1] | 159.24 | 12.6 µM |  | 
15 | COc1ccc(CN2C(=O)c3ccccc3NC2c2ccc(OC)c(COc3ccc(NC(C)=O)cc3)c2)cc1 (centres unmarked) [Structure 3] | 93.95 | 4.47 µM |  | 
16 | COc1ccc(CN(Cc2ccccc2)C(=O)c2ccccc2)cc1COc1ccc(NC(C)=O)cc1 [Structure 5] | 174.77 | 15.8 µM |  | 
17 | COc1ccc(C2Nc3ccccc3C(=O)N2Cc2ccco2)cc1COc1ccc(NC(C)=O)cc1 (centres unmarked) [Structure 6] | 180.81 | 17.8 µM |  | 
18 | COc1ccc(C2Nc3ccccc3C(=O)N2Cc2ccco2)cc1COc1ccc(NC(C)=O)cc1 (centres unmarked) [Structure 8] | 115.96 | 14.1 µM |  | 
19 | COc1ccc(C2Nc3ccccc3C(=O)N2Cc2ccco2)cc1COc1ccc(NC(C)=O)cc1 (centres unmarked) [Structure 9] | 115.62 | 17.8 µM |  | 
20 | COc1ccc(C2Nc3ccc(NC(C)=O)cc3C(=O)N2Cc2cccc(Cl)c2)cc1COc1ccc(NC(C)=O)cc1 (centres unmarked) [Structure 10] |  | 7.94 µM | 122% | 
21 | COc1ccc(C2Nc3ccccc3C(=O)N2Cc2cccc(Cl)c2)cc1COc1ccc(NC(C)=O)cc1 (centres unmarked) [Structure 11] | 113.94 | 3.16 µM |  | 
22 | COc1ccc(C2Nc3ccccc3C(=O)N2Cc2cccc(Cl)c2)cc1COc1ccc(NC(C)=O)cc1 (centres unmarked) [Structure 12] | 91.43 | 3.98 µM |  | 
23 | COc1ccc(C2Nc3ccccc3C(=O)N2Cc2cccc(-c3ccccc3)c2)cc1COc1ccc(NC(C)=O)cc1 (centres unmarked) [Structure 13] | 103.29 | 2.24 µM |  | 
24 | COc1ccc(C2Nc3ccccc3C(=O)N2Cc2ccco2)cc1COc1ccc(NC(C)=O)cc1 (centres unmarked) [Structure 14] | 104.66 | 11.2 µM |  | 
25 | COc1ccc(C(=O)N(Cc2ccccc2)Cc2ccc(OC)c(COc3ccc(NC(C)=O)cc3)c2)cc1 [Structure 15] |  | 12.6 µM | 123% | 

Second part, led by results:

Row | Maximum Activity compared to TSH | AC50 (HTRF cAMP, read-out: AC50) | Emax | SMILES | AC50 (AC50, HTRF cAMP)
26 | 97.95 | 20 µM |  | CCCCN1C(=O)c2ccccc2NC1c1ccc(OC)c(COc2ccc(NC(C)=O)cc2)c1 (centres unmarked) [Structure 16] | 
27 | 93.46 | 10 µM |  | COc1ccc(-c2nc3ccccc3c(=O)n2Cc2ccccc2)cc1COc1ccc(NC(C)=O)cc1 [Structure 17] | 
28 | 215.89 | 6.31 µM |  | COc1cccc(CN2C(=O)c3ccccc3NC2c2ccc(OC)c(COc3ccc(NC(C)=O)cc3)c2)c1 (centres unmarked) [Structure 18] | 
29 | 142.18 | 15.8 µM |  | COc1ccc(C2Nc3ccccc3C(=O)N2Cc2ccco2)cc1COc1ccc(NC(C)=O)cc1 (centres unmarked) [Structure 19] | 
30 | 156.28 | 14.1 µM |  | COc1ccc(C2Nc3ccccc3C(=O)N2Cc2ccco2)cc1COc1ccc(NC(C)=O)cc1 (centres unmarked) [Structure 20] | 
31 | 236.35 | 25.1 µM |  | COc1ccc(CN(Cc2ccccc2)C(=O)c2ccccc2N)cc1COc1ccc(NC(C)=O)cc1 [Structure 21] | 
32 | 463.89 | 7.94 µM |  | COc1ccc(C2Nc3ccccc3C(=O)N2Cc2ccccc2)cc1CSc1ccc(NC(C)=O)cc1 (centres unmarked) [Structure 22] | 
33 | 165.50 | 15.8 µM |  | COc1ccc(C2Nc3ccccc3C(=O)N2Cc2ccco2)cc1COc1ccc(NC(C)=O)cc1 (centres unmarked) [Structure 23] | 
34 | 123.52 | 4.47 µM |  | COc1ccc(C2Nc3ccccc3C(=O)N2Cc2cccc(C(F)(F)F)c2)cc1COc1ccc(NC(C)=O)cc1 (centres unmarked) [Structure 27] | 
35 | 405.10 | 10 µM |  | COc1ccc(C2Nc3cccc(O)c3C(=O)N2Cc2ccccc2)cc1COc1ccc(NC(C)=O)cc1 (centres unmarked) [Structure 28] | 
36 |  | 17.8 µM | 139% | COc1ccc(C2Cc3ccccc3C(=O)N2Cc2ccco2)cc1COc1ccc(NC(C)=O)cc1 (centres unmarked) [Structure 29] | 
37 | 63.65 | 3.16 µM |  | COc1ccc(CN2C(=O)c3ccccc3NC2c2ccc(OC)c(COc3ccc(NC(C)=O)cc3)c2)cc1 (centres unmarked) [Structure 30] | 
38 | 153.40 | 11.2 µM |  | COc1ccc(CN(Cc2ccccc2)C(=O)c2ccccc2)cc1COc1ccc(NC(C)=O)cc1 [Structure 31] | 
39 | 137.62 | 15.8 µM |  | COc1ccc(C2Nc3ccc(NC(C)=O)cc3C(=O)N2Cc2ccccc2)cc1COc1ccc(NC(C)=O)cc1 (centres unmarked) [Structure 32] | 
40 |  | 17.8 µM | 169% | COc1ccc(-c2nc3ccccc3c(=O)n2Cc2ccco2)cc1COc1ccc(NC(C)=O)cc1 [Structure 33] | 
